Laboratory results taken from ChEMBL document CHEMBL1201862, “PubChem BioAssay data set” (2004).
Blank lines part the entries; values can stand above or below the compound they belong to. The source made the active and inactive calls.

Assays:
[1] = HepG2 cell cytotoxicity, dose response, cytotoxicity control for Shn3 inhibitor project, CellTiter-Glo, cherry-picked (AID 624134); type: functional, cell-based
[2] = Shn3 3'UTR reporter inhibitors, dose response, cell-based, Clone20 osteoblasts, firefly luciferase, cherry-picked (AID 624132); type: functional;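 note: firefly luciferase luminescence from reporter carrying the Shn3 3'UTR in osteoblasts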
[3] = control 3'UTR Renilla luciferase suppression, dose response, counter-screen for Shn3 inhibitor project, cell-based, Clone20-Shn3RL, cherry-picked (AID 624133); type: functional
[4] = Luminescence Cell-Based Dose Confirmation HTS to Identify Inhibitors of Platelet Dense Granule Release. [Related pubchem assays: 1663 (Primary HTS), 1678 (Summary of Project)]; type: functional
[5] = molecular target: Luciferin 4-monooxygenase (Photinus pyralis, UniProt P08659); test: firefly luciferase enzyme inhibitors, dose response, biochemical, luminescence (AID 1891)
[6] = molecular target: T1, RNA-binding protein pos-1 (Caenorhabditis elegans, UniProt G5EF15); test: inhibitors of POS-1/mex-3 RNA binding, dose response, biochemical, fluorescence polarization (AID 1964);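 note: purified POS-1 fused to maltose binding protein made in E. coli; potency of compounds blocking POS-1 binding to fluorescent RNA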
T1 sequence (G5EF15 whole entry): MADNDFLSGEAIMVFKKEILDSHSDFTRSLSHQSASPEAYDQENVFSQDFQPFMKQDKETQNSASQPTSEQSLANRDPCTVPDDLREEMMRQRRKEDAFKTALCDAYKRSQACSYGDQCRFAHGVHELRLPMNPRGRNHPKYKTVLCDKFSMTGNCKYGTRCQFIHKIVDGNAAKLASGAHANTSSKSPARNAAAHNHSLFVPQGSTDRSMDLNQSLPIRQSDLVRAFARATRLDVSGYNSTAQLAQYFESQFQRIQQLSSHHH

cells [7] = type: functional, cell-based
[8] = growth suppression of beta-catenin-knockout colon cells, dose response, cell-based, HCT116, human colon tumor (AID 1045); type: functional;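 note: HCT116 colon tumor cells with beta catenin knocked out; cells exposed to compound for 60 hours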
cells [9] = type: functional, cell-based; remark: listed apart in the source
[10] = growth suppression of PTEN-null colon cells, dose response, cell-based, HCT116 PTEN knockout (AID 1047); type: functional;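 note: HCT116 colon tumor cells with PTEN knocked out; cells exposed to compound for 60 hours before readout; potency for loss of cell viability measured by luminescence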
Protein skinhead-1 = molecular target: T2, Protein skinhead-1 (Caenorhabditis elegans, UniProt P34707); type: functional
T2 sequence (P34707 whole entry): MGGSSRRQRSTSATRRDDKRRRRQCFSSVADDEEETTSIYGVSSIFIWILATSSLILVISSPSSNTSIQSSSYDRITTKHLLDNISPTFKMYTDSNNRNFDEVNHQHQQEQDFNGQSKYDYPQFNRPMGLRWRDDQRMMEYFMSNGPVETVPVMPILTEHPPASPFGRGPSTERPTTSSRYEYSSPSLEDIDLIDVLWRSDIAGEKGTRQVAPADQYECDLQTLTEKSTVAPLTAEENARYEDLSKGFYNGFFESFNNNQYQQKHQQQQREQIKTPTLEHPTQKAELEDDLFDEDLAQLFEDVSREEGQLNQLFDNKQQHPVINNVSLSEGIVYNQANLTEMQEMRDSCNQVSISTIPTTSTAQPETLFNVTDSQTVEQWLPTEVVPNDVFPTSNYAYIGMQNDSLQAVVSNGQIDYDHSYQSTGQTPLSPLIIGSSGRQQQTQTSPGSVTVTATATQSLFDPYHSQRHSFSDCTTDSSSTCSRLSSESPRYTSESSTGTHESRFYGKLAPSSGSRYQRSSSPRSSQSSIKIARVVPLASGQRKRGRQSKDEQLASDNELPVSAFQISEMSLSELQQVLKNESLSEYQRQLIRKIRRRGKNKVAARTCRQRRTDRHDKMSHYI

Cytochrome P450 2C9 = Cytochrome P450 2C9 (Homo sapiens, UniProt P11712)
Cytochrome P450 1A2 = molecular target: T3, Cytochrome P450 1A2 (Homo sapiens, UniProt P05177);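 note: PubChem cytochrome P450 panel assay, CYP1A2 panel member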
T3 sequence (P05177 whole entry): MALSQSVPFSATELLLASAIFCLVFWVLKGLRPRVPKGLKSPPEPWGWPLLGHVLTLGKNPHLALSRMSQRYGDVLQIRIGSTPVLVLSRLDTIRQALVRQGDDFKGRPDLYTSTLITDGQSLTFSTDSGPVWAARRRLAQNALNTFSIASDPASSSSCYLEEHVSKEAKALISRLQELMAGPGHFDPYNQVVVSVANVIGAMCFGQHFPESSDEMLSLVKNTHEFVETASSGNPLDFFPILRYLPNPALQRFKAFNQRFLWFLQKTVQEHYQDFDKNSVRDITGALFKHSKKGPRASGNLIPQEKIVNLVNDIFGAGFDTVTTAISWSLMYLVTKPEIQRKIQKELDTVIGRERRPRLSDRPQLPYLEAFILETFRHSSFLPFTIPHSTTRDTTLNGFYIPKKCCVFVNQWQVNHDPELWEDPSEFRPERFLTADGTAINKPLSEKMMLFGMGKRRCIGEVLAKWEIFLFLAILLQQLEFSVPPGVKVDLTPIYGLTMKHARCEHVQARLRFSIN

[11] = inhibitors of HIV Env-driven cell fusion, dose response, cherry-pick (AID 652057); type: functional, cell-based
[12] = inhibitors of clade B AD8 Env fusion, dose response, cell-based, cherry-pick (AID 652062); type: functional;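 note: luciferase signal from cell-cell fusion driven by HIV-1 clade B AD8 Env; potency is for inhibitors of fusion seen as a drop in luminescence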

Chain of Luciferin 4-monooxygenase (P08659 whole entry, the tested form may be a part): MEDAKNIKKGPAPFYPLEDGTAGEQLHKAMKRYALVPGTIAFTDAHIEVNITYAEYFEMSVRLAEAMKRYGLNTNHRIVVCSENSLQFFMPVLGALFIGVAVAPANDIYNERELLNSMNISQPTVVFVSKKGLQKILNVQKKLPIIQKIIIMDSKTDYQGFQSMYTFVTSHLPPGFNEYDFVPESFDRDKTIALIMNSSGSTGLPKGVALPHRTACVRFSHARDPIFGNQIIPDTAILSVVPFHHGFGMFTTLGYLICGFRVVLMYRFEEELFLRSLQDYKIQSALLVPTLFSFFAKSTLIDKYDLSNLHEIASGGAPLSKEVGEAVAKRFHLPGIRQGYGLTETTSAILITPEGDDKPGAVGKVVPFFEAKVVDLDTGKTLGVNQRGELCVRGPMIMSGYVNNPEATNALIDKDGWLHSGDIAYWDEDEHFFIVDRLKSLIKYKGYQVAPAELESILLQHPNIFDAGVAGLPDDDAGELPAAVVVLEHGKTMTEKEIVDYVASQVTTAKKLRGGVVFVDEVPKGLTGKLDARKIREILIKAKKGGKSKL
Chain of Cytochrome P450 2C9 (P11712 whole entry): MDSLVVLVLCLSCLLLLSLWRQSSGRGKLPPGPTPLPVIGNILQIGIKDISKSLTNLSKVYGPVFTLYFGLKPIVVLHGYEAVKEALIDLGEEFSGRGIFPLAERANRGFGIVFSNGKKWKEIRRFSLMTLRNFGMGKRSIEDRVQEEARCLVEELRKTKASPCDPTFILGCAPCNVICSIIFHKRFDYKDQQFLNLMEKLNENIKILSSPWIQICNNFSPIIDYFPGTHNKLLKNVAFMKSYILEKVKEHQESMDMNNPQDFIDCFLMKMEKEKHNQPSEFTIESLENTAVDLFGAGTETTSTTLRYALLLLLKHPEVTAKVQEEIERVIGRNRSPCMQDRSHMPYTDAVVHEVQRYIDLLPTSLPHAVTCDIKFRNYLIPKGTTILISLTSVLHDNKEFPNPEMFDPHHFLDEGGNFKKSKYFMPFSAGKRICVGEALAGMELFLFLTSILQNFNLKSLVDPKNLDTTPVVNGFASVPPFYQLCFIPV

Compound: CC(=O)Nc1cccc(NC(=O)CSc2ncc(-c3ccc(Cl)cc3)n2Cc2ccco2)c1
AC50 [1]: 60.2 µM (active)
AC50 [2]: 4.95 µM (active)
AC50 [3]: 10.7 µM (active)

Compound: CCCCOc1cccc(-c2cc(C(=O)NN=C(S)NCC)c3ccccc3n2)c1
EC50 [4]: 111 µM (active)

EC50 [5]: 2.3 µM (active)
Compound: CCCCOc1cccc(-c2cc(C(=O)NNC(=S)NCC)c3ccccc3n2)c1

EC50 [6]: > 300 µM (not active)
Compound: O=C(O)COc1ccc(/C=C/c2n[nH]c(-c3ccccc3O)n2)cc1

Compound: COc1ccc(CC(=O)Nc2cccc(-c3nnc(-c4ccccc4)o3)c2)cc1OC
EC50 (cells [7]): > 350 µM (not active)
EC50 [8]: 69.6 µM (active)
EC50 (cells [9]): > 350 µM (not active)
EC50 [10]: 25.4 µM (active)

Compound: CCC(=O)N1CCN(c2nc3ccc(Br)cc3s2)CC1
EC50 (cells [7]): 144 µM (active)
EC50 (cells [9]): > 350 µM (not active)
IC50 (Protein skinhead-1): 58.6 µM (inactive)

Compound: O=C(NCc1cccc(Cl)c1)c1cc(COc2ccc3ncccc3c2)on1
AC50 [1]: 38.7 µM (active)
AC50 [2]: 3.05 µM (active)
AC50 [3]: 14.8 µM (active)

Compound: CCn1ccnc1C(O)c1ccccc1OC (centres undefined)
EC50 (cells [7]): > 350 µM (not active)
EC50 (cells [9]): > 350 µM (not active)

Compound: Cc1ccc(C(=O)CCC(=O)Nc2cccc(C(F)(F)F)c2)cc1
EC50 [4]: > 112 µM (not active)
EC50 [5]: > 112 µM (not active)

AC50 (Cytochrome P450 2C9): inconclusive
Compound: Cc1ccc(CNC(=O)CCNS(=O)(=O)c2ccc3c(c2)c(=O)n(C)c(=O)n3C)cc1

AC50 (Cytochrome P450 1A2): 25.1 µM (inconclusive)
AC50 (Cytochrome P450 2C9): inconclusive
Compound: COC(=O)CN(c1ccccn1)S(=O)(=O)c1ccccc1

Compound: Cc1ccc2c(c1)C(CCN)C(=O)N2Cc1ccccc1 (centres undefined)
EC50 [4]: > 112 µM (not active)
EC50 [5]: > 112 µM (not active)

Compound: Cc1cc2ncn(S(=O)(=O)N3CCCCC3)c2cc1C
AC50 [11]: 5.54 µM (active)
AC50 [12]: 60.6 µM (active)

Compound: c1c2c(cc3sc(N4CCOCC4)nc13)OCCO2
EC50 [4]: 3.56 µM (active)
EC50 [5]: 11.4 µM (active)
